These results are taken from patent US10577332B2, “Tetrazole derivatives” (Hoffmann-La Roche Inc., priority 2015, dated 2020).

The target in one series is T1, human EAAT3 (Homo sapiens, UniProt P43005).
T1 construct: expressed in transfected cells
T1 sequence (P43005 1-524): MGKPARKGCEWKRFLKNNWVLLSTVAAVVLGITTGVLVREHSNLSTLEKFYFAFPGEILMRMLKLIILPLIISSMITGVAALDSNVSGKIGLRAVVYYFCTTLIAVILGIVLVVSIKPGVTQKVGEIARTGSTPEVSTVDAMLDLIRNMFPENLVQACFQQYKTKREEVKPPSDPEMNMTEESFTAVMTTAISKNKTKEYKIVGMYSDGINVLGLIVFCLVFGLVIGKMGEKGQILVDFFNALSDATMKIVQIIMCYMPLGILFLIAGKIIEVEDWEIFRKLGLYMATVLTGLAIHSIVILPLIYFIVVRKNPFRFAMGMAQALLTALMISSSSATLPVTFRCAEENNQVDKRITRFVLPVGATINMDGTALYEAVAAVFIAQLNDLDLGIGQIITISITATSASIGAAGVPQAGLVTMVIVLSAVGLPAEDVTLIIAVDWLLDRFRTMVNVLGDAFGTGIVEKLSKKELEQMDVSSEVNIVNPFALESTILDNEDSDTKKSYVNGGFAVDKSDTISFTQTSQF
Put plainly: FLIPR Membrane Potential (FMP) assay. It counts as cell-based. As to conditions: HEK-293 cells stably expressing human EAAT3; antagonist applied 15 min before L-glutamate at EC80; Kb by Cheng-Prusoff from IC50. The gist of the method:
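HEK-293 cells stably expressing human EAAT3, loaded with membrane-potential dye 1 h at 37 °C in Krebs buffer pH 7.4. Antagonists added 15 min before L-glutamate at EC80; peak fluorescence minus basal read on FLIPR at room temperature. Kb derived from IC50 via Cheng-Prusoff.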

On to `CCC(C)(C)NC(=O)c1cc(-c2ccc(Cl)cc2)cc(-n2nnnc2C)c1` [Example 66, 3-(4-Chlorophenyl)-N-(2-methylbutan-2-yl)-5-(5-methyltetrazol-1-yl)-benzamide], for which the melting point turned out to be 80.5 °C. The molecule also displayed an antagonist dissociation constant (Kb) on human EAAT3 of 170 nM.
Consider `CC(C)c1nnnn1-c1cc(C(=O)NC2(C)CCS(=O)(=O)C2)cc(-c2ccc(C(F)(F)F)cc2)c1` (racemic) [Example 49, (RS)—N-(3-methyl-1,1-dioxothiolan-3-yl)-3-(5-propan-2-yltetrazol-1-yl)-5-[4-(trifluoromethyl)phenyl]benzamide], for which the melting point amounted to 117 °C. The same molecule gave a Kb at human EAAT3 of 330 nM.
For `CC(C)(C)c1nnnn1-c1cc(C(=O)NC(C)(C)C(F)(F)F)cc(-c2ccc(Cl)cc2)c1` [Example 93, 3-(5-tert-Butyltetrazol-1-yl)-5-(4-chlorophenyl)-N-(1,1,1-trifluoro-2-methylpropan-2-yl)-benzamide], in that order: 218.5 °C and 260 nM.
The corresponding values for `CC(C)(NC(=O)c1cc(-c2ccc(Cl)cc2)cc(-n2cnnn2)c1)C1CC1` [Example 31, 3-(4-Chlorophenyl)-N-(2-cyclopropylpropan-2-yl)-5-(tetrazol-1-yl)-benzamide] are 191 °C and 210 nM.
For `CC1(NC(=O)c2cc(-c3ccc(Cl)cc3)cc(-n3nnnc3C3CC3)c2)CCS(=O)(=O)C1` (racemic) [Example 57, (RS)-3-(4-Chlorophenyl)-5-(5-cyclopropyltetrazol-1-yl)-N-(3-methyl-1,1-dioxothiolan-3-yl)-benzamide], in that order: 126 °C and 350 nM.
Turning to `CC(C)c1nnnn1-c1cc(C(=O)NC(C)(C)C)cc(-c2ccc(F)cc2)c1` [Example 61, N-tert-Butyl-3-(4-fluorophenyl)-5-(5-propan-2-yltetrazol-1-yl)-benzamide], the melting point is 85 °C. The Kb at human EAAT3 worked out at 230 nM.
`Cc1ccc(-c2cc(C(=O)NC(C)(C)C3CC3)cc(-n3nnnc3C(C)(C)C)c2)cc1F` [Example 115, 3-(5-tert-Butyltetrazol-1-yl)-N-(2-cyclopropylpropan-2-yl)-5-(3-fluoro-4-methylphenyl)-benzamide] returned a melting point of 92 °C. The molecule further returned a Kb at human EAAT3 of 520 nM.
`CCC(C)(C)NC(=O)c1cc(-c2ccc(C(F)(F)F)cc2)cc(-n2cnnn2)c1` [Example 2, N-(2-Methylbutan-2-yl)-3-(tetrazol-1-yl)-5-[4-(trifluoromethyl)phenyl]-benzamide] returned a melting point of 168 °C. Also, the Kb at human EAAT3 amounted to 220 nM.
The corresponding values for `CC(C)(NC(=O)c1cc(-c2ccc(F)cc2)cc(-n2cnnn2)c1)C(F)(F)F` [Example 18, 3-(4-Fluorophenyl)-5-(tetrazol-1-yl)-N-(1,1,1-trifluoro-2-methylpropan-2-yl)-benzamide] are 175 °C and 430 nM.
For `CCc1nnnn1-c1cc(C(=O)NC2(C)CCS(=O)(=O)C2)cc(-c2ccc(C)cc2)c1` (racemic) [Example 34, (RS)-3-(5-Ethyltetrazol-1-yl)-N-(3-methyl-1,1-dioxothiolan-3-yl)-5-(4-methylphenyl)-benzamide], in that order: 122 °C and 270 nM.
`CCc1nnnn1-c1cc(C(=O)NC(C)(C)C2CC2)cc(-c2ccc(C)cc2)c1` [Example 36, N-(2-Cyclopropylpropan-2-yl)-3-(5-ethyltetrazol-1-yl)-5-(4-methylphenyl)-benzamide] had a melting point of 59.5 °C. Further, the Kb on human EAAT3 worked out at 350 nM.
As to `Cc1nnnn1-c1cc(C(=O)NC2(C)CCS(=O)(=O)C2)cc(-c2ccc(F)cc2)c1` (racemic) [Example 87, (RS)-3-(4-Fluorophenyl)-N-(3-methyl-1,1-dioxothiolan-3-yl)-5-(5-methyltetrazol-1-yl)-benzamide], the melting point is 117 °C. On human EAAT3, this molecule showed an antagonist equilibrium constant (Kb) of 290 nM.
For `CCC(C)(C)NC(=O)c1cc(-c2ccc(OC)cc2)cc(-n2cnnn2)c1` [Example 7, 3-(4-Methoxyphenyl)-N-(2-methylbutan-2-yl)-5-(tetrazol-1-yl)-benzamide], in that order: 150 °C and 410 nM.
The corresponding values for `CC(C)(C)c1nnnn1-c1cc(C(=O)NC(C)(C)C(F)(F)F)cc(-c2ccc(Cl)c(F)c2)c1` [Example 119, 3-(5-tert-Butyltetrazol-1-yl)-5-(4-chloro-3-fluorophenyl)-N-(1,1,1-trifluoro-2-methylpropan-2-yl)-benzamide] are 222 °C and 350 nM.
The corresponding values for `CC(C)c1nnnn1-c1cc(C(=O)NC2(C)CCS(=O)(=O)C2)cc(-c2ccc(Cl)cc2)c1` (racemic) [Example 45, (RS)-3-(4-Chlorophenyl)-N-(3-methyl-1,1-dioxothiolan-3-yl)-5-(5-propan-2-yltetrazol-1-yl)benzamide] are 73 °C and 260 nM.
As for `Cc1nnnn1-c1cc(C(=O)NC(C)(C)CO)cc(-c2ccc(F)cc2)c1` [Example 84, 3-(4-Fluorophenyl)-N-(1-hydroxy-2-methylpropan-2-yl)-5-(5-methyltetrazol-1-yl)-benzamide], the melting point came out at 85 °C. For the same molecule, the Kb at human EAAT3 was found to be 780 nM.
For `CCC(C)(C)NC(=O)c1cc(-c2ccc(F)c(F)c2)cc(-n2cnnn2)c1` [Example 39, 3-(3,4-Difluorophenyl)-N-(2-methylbutan-2-yl)-5-(tetrazol-1-yl)-benzamide], in that order: 189 °C and 200 nM.
The molecule `CC(C)(C)c1nnnn1-c1cc(C(=O)NC(C)(C)C2CC2)cc(-c2ccc(F)cc2)c1` [Example 99, 3-(5-tert-Butyltetrazol-1-yl)-N-(2-cyclopropylpropan-2-yl)-5-(4-fluorophenyl)-benzamide] came in with a melting point of 201 °C. On human EAAT3, the Kb came out at 200 nM.
For `Cc1nnnn1-c1cc(C(=O)NC2(C)CCS(=O)(=O)C2)cc(-c2ccc(Cl)cc2)c1` (racemic) [Example 65, (RS)-3-(4-Chlorophenyl)-N-(3-methyl-1,1-dioxothiolan-3-yl)-5-(5-methyltetrazol-1-yl)-benzamide], in that order: 155.5 °C and 360 nM.
As to `CCc1nnnn1-c1cc(C(=O)NC(C)(C)C)cc(-c2ccc(C)cc2)c1` [Example 30, N-tert-Butyl-3-(5-ethyltetrazol-1-yl)-5-(4-methylphenyl)-benzamide], the melting point came out at 73 °C. Moreover, the Kb on human EAAT3 is 210 nM.
In turn, `CCc1nnnn1-c1cc(C(=O)NC(C)(C)CC)cc(-c2ccc(C)cc2)c1` [Example 28, 3-(5-Ethyltetrazol-1-yl)-N-(2-methylbutan-2-yl)-5-(4-methylphenyl)-benzamide] had a melting point of 71.5 °C. The Kb at human EAAT3 was determined as 140 nM.
For `CC(C)c1nnnn1-c1cc(C(=O)NC2(C)CCS(=O)(=O)C2)cc(-c2ccc(F)cc2)c1` (racemic) [Example 63, (RS)-3-(4-Fluorophenyl)-N-(3-methyl-1,1-dioxothiolan-3-yl)-5-(5-propan-2-yltetrazol-1-yl)-benzamide], in that order: 112.5 °C and 650 nM.
The corresponding values for `Cc1ccc(-c2cc(C(=O)NC(C)(C)C3CC3)cc(-n3nnnc3C(C)C)c2)cc1` [Example 20, N-(2-Cyclopropylpropan-2-yl)-3-(4-methylphenyl)-5-(5-propan-2-yltetrazol-1-yl)-benzamide] are 78 °C and 310 nM.
For `Cc1ccc(-c2cc(C(=O)NC(C)(C)C(F)(F)F)cc(-n3nnnc3C(C)(C)C)c2)cc1` [Example 117, 3-(5-tert-Butyltetrazol-1-yl)-5-(4-methylphenyl)-N-(1,1,1-trifluoro-2-methylpropan-2-yl)-benzamide], in that order: 223.5 °C and 280 nM.
In turn, `CCC(C)(C)NC(=O)c1cc(-c2ccc(F)c(Cl)c2)cc(-n2cnnn2)c1` [Example 40, 3-(3-Chloro-4-fluorophenyl)-N-(2-methylbutan-2-yl)-5-(tetrazol-1-yl)-benzamide] gave a melting point of 205 °C. At human EAAT3, the Kb is 570 nM.
For `Cc1cc(-c2cc(C(=O)NC(C)(C)C3CC3)cc(-n3nnnc3C(C)(C)C)c2)ccc1F` [Example 110, 3-(5-tert-Butyltetrazol-1-yl)-N-(2-cyclopropylpropan-2-yl)-5-(4-fluoro-3-methylphenyl)-benzamide], in that order: 88 °C and 490 nM.
The corresponding values for `CC(C)c1nnnn1-c1cc(C(=O)NC(C)(C)C(F)(F)F)cc(-c2ccc(C(F)(F)F)cc2)c1` [Example 53, 3-(5-Propan-2-yltetrazol-1-yl)-5-[4-(trifluoromethyl)-phenyl]-N-(1,1,1-trifluoro-2-methylpropan-2-yl)-benzamide] are 91 °C and 480 nM.
In turn, `CC(C)c1nnnn1-c1cc(C(=O)NC(C)(C)C2CC2)cc(-c2ccc(F)cc2)c1` [Example 82, N-(2-Cyclopropylpropan-2-yl)-3-(4-fluorophenyl)-5-(5-propan-2-yltetrazol-1-yl)-benzamide] came in with a melting point of 75 °C. At human EAAT3, the antagonist equilibrium constant (Kb) came out at 160 nM.

In general, Kb refers to the affinity of an antagonist, worked out from how it opposes an agonist. A low value points to higher antagonist affinity. The term melting point denotes the temperature, or range, at which the solid turns liquid.
